In this test the test system is H1N1 A/California/04/09. Format: in vivo, DBA/2 mice. The conditions noted are these: 18 days.

Take `CCOC(=O)C1=C[C@@H](OC(CC)CC)[C@H](NC(C)=O)[C@@H](N)C1` [oseltamivir]: the animals survived result is given as “no survival”.

The record behind these values is US8900590B2 (priority 2010, dated 2014).
